The values that follow come from patent US10300067B2, “Tetrahydropyridopyrimidine compound or salt thereof” (TAIHO PHARMACEUTICAL CO., LTD., priority 2014, dated 2019).

Read-outs that look alike come from different tables or passages of the source.

Assay type in all cases: cell-based
Test [1] deals with AR positive human prostate cancer cells VCaP. The test is described as follows: Agonist activity for AR (cell proliferation rate of VCaP cells). The settings on record: 72 hours, 2 to 10000 nmol/L, more than 10% at any concentration = agonist activity for AR. The method, boiled down:
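VCaP cells seeded at 1.5×10^4/well in phenol-red-free RPMI1640 with 5% DCC-FBS, then exposed 72 h to compound at 2–10000 nmol/L (9 concentrations). Viable cells counted by CellTiter-Glo; proliferation rate (%) relative to medium-only control, agonist activity called when >10% at any concentration.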

The subject of test [2] is Human prostate cancer cells LNCaP. As to the kind of experiment: Androgen-dependent inhibitory activity on proliferation of prostate cancer cells. The settings on record: read-out: GI50 value. On the procedure: Human prostate cancer cells LNCaP (Non-Patent Literature 5) having […] androgen receptor gene were seeded in a clear bottom 96 well microplate (BD) at 4.0×10^3/well with phenol red free RPMI1640 containing 5% DCC-FBS (hereinbelow, the medium is referred to as an evaluation medium), and then cultured overnight. The culture was added with the evaluation medium containing DHT (final concentration of DHT: 10 nmol/L) or the evaluation medium containing the compound of Examples or the compound of Comparative Examples (final concentration of the compound of Examples or the compound of Comparative Examples: 10, 30, 100, 300, 1000, 3000, 10000, or 30000 nmol/L), followed by culture for 72 hours. Then, the number of viable cells was counted. The number of viable cells was measured by using Cell Counting Kit-8 (DOJINDO LABORATORIES).

In the next test the target is androgen receptor (Homo sapiens (Human), UniProt P10275, T878A). The test is described as follows: Activity of reducing expression level of androgen receptor (Western blotting of LNCaP cell lysate). The settings on record: 48 hours. Summed up:
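LNCaP prostate cancer cells (AR T878A) in phenol red-free RPMI1640 with 5% FBS treated with compound at final 10000 nmol/L for 48 h. Cell lysates analysed by Western blot with anti-AR antibody; band quantified by chemiluminescence.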
(In general: Immunoblotting shows a protein as a band on a membrane.)

Another test addresses human androgen receptor (Homo sapiens (Human), UniProt P10275). The test is described as follows: Antagonist activity for AR (pMMTV-luc reporter transcription activity in transfected COS-7 cells, DHT 1 nmol/L). As to conditions: 50% transcription activity inhibition concentration; COS-7 cells with pMMTV-luc and pEX-hAR, DHT 1 nmol/L, 24 hours. The method, boiled down:
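COS-7 cells co-transfected with pMMTV-luc reporter and CMV-driven human AR expression vector, cultured overnight in phenol red-free RPMI1640 with 10% charcoal-treated FBS. Antagonism measured against 1 nmol/L DHT by luciferase transcription activity.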

[3] abbreviates: 50% proliferation inhibition concentration, DHT 10 nmol/L, 72 hours.

human androgen receptor, sequence (P10275 whole entry): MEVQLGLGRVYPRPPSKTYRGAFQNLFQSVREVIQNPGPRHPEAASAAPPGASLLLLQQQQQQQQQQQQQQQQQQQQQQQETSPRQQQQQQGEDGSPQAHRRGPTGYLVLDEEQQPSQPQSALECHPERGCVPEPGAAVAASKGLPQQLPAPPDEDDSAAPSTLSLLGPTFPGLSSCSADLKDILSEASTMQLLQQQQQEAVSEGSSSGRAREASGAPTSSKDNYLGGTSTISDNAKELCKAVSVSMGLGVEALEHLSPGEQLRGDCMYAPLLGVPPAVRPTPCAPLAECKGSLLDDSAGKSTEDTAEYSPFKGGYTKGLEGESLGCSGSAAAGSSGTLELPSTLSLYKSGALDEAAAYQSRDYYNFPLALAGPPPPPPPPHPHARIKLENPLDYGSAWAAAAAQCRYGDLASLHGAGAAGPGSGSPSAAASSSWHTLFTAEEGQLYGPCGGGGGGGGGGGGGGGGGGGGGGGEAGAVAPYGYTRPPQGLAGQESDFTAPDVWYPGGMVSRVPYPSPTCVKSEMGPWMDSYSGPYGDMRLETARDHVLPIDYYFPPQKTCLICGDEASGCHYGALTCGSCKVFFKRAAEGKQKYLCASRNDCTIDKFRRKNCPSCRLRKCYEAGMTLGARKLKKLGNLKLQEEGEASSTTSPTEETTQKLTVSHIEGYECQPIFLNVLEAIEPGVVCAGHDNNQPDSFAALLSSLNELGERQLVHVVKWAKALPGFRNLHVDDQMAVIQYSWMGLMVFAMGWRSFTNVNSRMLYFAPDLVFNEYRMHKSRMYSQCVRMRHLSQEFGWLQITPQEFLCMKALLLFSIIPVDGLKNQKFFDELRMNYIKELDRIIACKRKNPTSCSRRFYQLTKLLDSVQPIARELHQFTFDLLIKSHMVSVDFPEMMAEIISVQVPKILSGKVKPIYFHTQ
androgen receptor, sequence (P10275 whole entry T878A): as the sequence (P10275 whole entry) above, with T878A counted along it

As usually defined, the GI50 is the concentration that inhibits growth by half. The IC50 is the concentration needed to halve the response being measured. The low end stands for greater potency in that assay, the high end for weaker potency in that assay. Turning to `C[C@@H](NC(=O)c1ccc(Nc2ncnc3c2CCN(c2ccc(C#N)c(C(F)(F)F)c2)C3)nc1)c1nnco1` [Example 38, (R)—N-(1-(1,3,4-oxadiazol-2-yl)ethyl)-6-((7-(4-cyano-3-(trifluoromethyl)phenyl)-5,6,7,8-tetrahydropyrido[3,4-d]pyrimidin-4-yl)amino)nicotinamide], the “Cell proliferation rate (%)” value in test [1] is given as −2.7%. Further, the GI50 in test [2] (setting [3]) amounted to 1100 nM. Further, the “10 μM AR expression reducing activity” value at androgen receptor was “reduced (When the AR expression reducing activity is 50% or more, it is described as “reduced”)”. This compound also showed an IC50 on human androgen receptor of 560 nM.
For the compound `CC(C)(O)c1ccc(Nc2ncnc3c2CCN(c2ccc(C#N)c(C(F)(F)F)c2)C3)nc1F` [Example 5, 4-(4-((6-fluoro-5-(2-hydroxypropan-2-yl)pyridin-2-yl)amino)-5,6-dihydropyrido[3,4-d]pyrimidin-7 (8H)-yl)-2-(trifluoromethyl)benzonitrile], the “Cell proliferation rate (%)” value in test [1] is reported as −5.5%. The GI50 in test [2] (setting [3]) amounted to 600 nM. In addition, the “10 μM AR expression reducing activity” value at androgen receptor is recorded as “reduced (When the AR expression reducing activity is 50% or more, it is described as “reduced”)”. Further, the IC50 against human androgen receptor turned out to be 190 nM.
For `CC(C)Oc1ccc(Nc2ncnc3c2CCN(c2ccc(C#N)c(C(F)(F)F)c2)C3)cc1` [Example 2, 4-(4-((4-isopropoxyphenyl)amino)-5,6-dihydropyrido[3,4-d]pyrimidin-7(8H)-yl)-2-(trifluoromethyl)benzonitrile], in test [1], the “Cell proliferation rate (%)” value is on record as 3.8%. The GI50 in test [2] (setting [3]) was 1000 nM. In addition, the “10 μM AR expression reducing activity” value on androgen receptor was “reduced (When the AR expression reducing activity is 50% or more, it is described as “reduced”)”. The same compound returned an IC50 against human androgen receptor of 370 nM.
Take `CC(C)(O)CNC(=O)c1cnc(Nc2ncnc3c2CCN(c2ccc(C#N)c(C(F)(F)F)c2)C3)nc1` [Example 34, 2-((7-(4-cyano-3-(trifluoromethyl)phenyl)-5,6,7,8-tetrahydropyrido[3,4-d]pyrimidin-4-yl)amino)-N-(2-hydroxy-2-methylpropyl)pyrimidine-5-carboxamide]: in test [1], the “Cell proliferation rate (%)” value was determined as 6.4%. Further, the 50% growth inhibitory concentration (GI50) in test [2] (setting [3]) was found to be 3800 nM. Besides, on androgen receptor, the “10 μM AR expression reducing activity” value is listed as “reduced (When the AR expression reducing activity is 50% or more, it is described as “reduced”)”. Besides, the IC50 against human androgen receptor was determined as 700 nM.
As to `CC(C)(O)c1ccc(Nc2ncnc3c2CCN(c2ccc(C#N)c(C(F)(F)F)c2)C3)nn1` [Example 10, 4-(4-((6-(2-hydroxypropan-2-yl)pyridazin-3-yl)amino)-5,6-dihydropyrido[3,4-d]pyrimidin-7 (8H)-yl)-2-(trifluoromethyl)benzonitrile], the “Cell proliferation rate (%)” value in test [1] came out at 2.8%. Also, in test [2] (setting [3]), the GI50 was 800 nM. Moreover, the “10 μM AR expression reducing activity” value on androgen receptor is given as “reduced (When the AR expression reducing activity is 50% or more, it is described as “reduced”)”. At human androgen receptor, this compound came in with an IC50 of 90 nM.
Take `C[C@@H](NC(=O)c1ccc(Nc2ncnc3c2CCN(c2ccc(C#N)c(C(F)(F)F)c2)C3)nc1)c1nnc(C(F)(F)F)o1` [Example 40, (R)-6-((7-(4-cyano-3-(trifluoromethyl)phenyl)-5,6,7,8-tetrahydropyrido[3,4-d]pyrimidin-4-yl)amino)-N-(1-(5-(trifluoromethyl)-1,3,4-oxadiazol-2-yl)ethyl)nicotinamide]: in test [1], the “Cell proliferation rate (%)” value was 0.0%. Besides, in test [2] (setting [3]), the GI50 was found to be 400 nM. Besides, on androgen receptor, the “10 μM AR expression reducing activity” value is reported as “reduced (When the AR expression reducing activity is 50% or more, it is described as “reduced”)”. Further, the half-inhibitory concentration (IC50) on human androgen receptor was 260 nM.
For the compound `CC(C)Oc1ccc(Nc2ncnc3c2CCN(c2ccc(C#N)c(C(F)(F)F)c2)C3)cn1` [Example 13, 4-(4-((6-isopropoxypyridin-3-yl)amino)-5,6-dihydropyrido[3,4-d]pyrimidin-7(8H)-yl)-2-(trifluoromethyl)benzonitrile], in test [1], the “Cell proliferation rate (%)” value came out at 2.8%. Moreover, the GI50 in test [2] (setting [3]) was 600 nM. Also, the “10 μM AR expression reducing activity” value on androgen receptor was “reduced (When the AR expression reducing activity is 50% or more, it is described as “reduced”)”. The same compound yielded an IC50 against human androgen receptor of 110 nM.
For `N#Cc1ccc(N2CCc3c(ncnc3Nc3ncns3)C2)cc1C(F)(F)F` [Example 1, 4-(4-((1,2,4-thiadiazol-5-yl)amino)-5,6-dihydropyrido[3,4-d]pyrimidin-7(8H)-yl)-2-(trifluoromethyl)benzonitrile], the “Cell proliferation rate (%)” value in test [1] stood at 8.7%. Further, the GI50 in test [2] (setting [3]) was determined as 3000 nM. In addition, on androgen receptor, the “10 μM AR expression reducing activity” value is “reduced (When the AR expression reducing activity is 50% or more, it is described as “reduced”)”. This compound also gave an IC50 on human androgen receptor of 80 nM.
Consider `CC(C)(O)C1CCN(C(=O)c2cnc(Nc3ncnc4c3CCN(c3ccc(C#N)c(C(F)(F)F)c3)C4)o2)CC1` [Example 42, 4-(4-((5-(4-(2-hydroxypropan-2-yl)piperidin-1-carbonyl)oxazol-2-yl)amino)-5,6-dihydropyrido[3,4-d]pyrimidin-7(8H)-yl)-2-(trifluoromethyl)benzonitrile], for which the “Cell proliferation rate (%)” value in test [1] is −17.2%. The GI50 in test [2] (72 h) is 1100 nM. For the same compound, the “10 μM AR expression reducing activity” value on androgen receptor is recorded as “reduced (When the AR expression reducing activity is 50% or more, it is described as “reduced”)”. The same compound returned an IC50 on human androgen receptor of 340 nM.
In the case of `CC(C)(COc1ccc(Nc2ncnc3c2CCN(c2ccc(C#N)c(C(F)(F)F)c2)C3)nc1)n1cnnn1` [Example 17, 4-(4-((5-(2-methyl-2-(1H-tetrazol-1-yl)propoxy)pyridin-2-yl)amino)-5,6-dihydropyrido[3,4-d]pyrimidin-7(8H)-yl)-2-(trifluoromethyl)benzonitrile], the “Cell proliferation rate (%)” value in test [1] is reported as 0.6%. Also, the GI50 in test [2] (setting [3]) is 700 nM. Further, the “10 μM AR expression reducing activity” value on androgen receptor is on record as “reduced (When the AR expression reducing activity is 50% or more, it is described as “reduced”)”. The same compound returned an IC50 against human androgen receptor of 170 nM.
Take `N#Cc1ccc(N2CCc3c(ncnc3Nc3ncc(S(=O)(=O)N4CCCOCC4)s3)C2)cc1C(F)(F)F` [Example 20, 4-(4-((5-((1,4-oxazepan-4-yl)sulfonyl)thiazol-2-yl)amino)-5,6-dihydropyrido[3,4-d]pyrimidin-7 (8H)-yl)-2-(trifluoromethyl)benzonitrile]: in test [1], the “Cell proliferation rate (%)” value is 0.0%. Also, the GI50 in test [2] (setting [3]) was determined as 2500 nM. Further, the “10 μM AR expression reducing activity” value on androgen receptor is recorded as “reduced (When the AR expression reducing activity is 50% or more, it is described as “reduced”)”. This compound displayed an IC50 at human androgen receptor of 100 nM.
As for `N#Cc1ccc(N2CCc3c(ncnc3Nc3ccc(C(=O)NCC(F)(F)F)nn3)C2)cc1C(F)(F)F` [Example 24, 6-((7-(4-Cyano-3-(trifluoromethyl)phenyl)-5,6,7,8-tetrahydropyrido[3,4-d]pyrimidin-4-yl)amino)-N-(2,2,2-trifluoroethyl)pyridazine-3-carboxamide], the GI50 in test [2] (setting [3]) was found to be 3500 nM. The “10 μM AR expression reducing activity” value on androgen receptor is reported as “reduced (When the AR expression reducing activity is 50% or more, it is described as “reduced”)”. The IC50 at human androgen receptor was 70 nM.
Turning to `CC(C)(COc1ccc(Nc2ncnc3c2CCN(c2ccc(C#N)c(C(F)(F)F)c2)C3)cn1)n1cnnn1` [Example 16, 4-(4-((6-(2-methyl-2-(1H-tetrazol-1-yl)propoxy)pyridin-3-yl)amino)-5,6-dihydropyrido[3,4-d]pyrimidin-7(8H)-yl)-2-(trifluoromethyl)benzonitrile], the “Cell proliferation rate (%)” value in test [1] is −1.5%. The GI50 in test [2] (setting [3]) stood at 700 nM. The “10 μM AR expression reducing activity” value on androgen receptor is recorded as “reduced (When the AR expression reducing activity is 50% or more, it is described as “reduced”)”. Also, at human androgen receptor, the IC50 came to 210 nM.
In the case of `CC(C)(O)CNC(=O)c1ccc(Nc2ncnc3c2CCN(c2ccc(C#N)c(C(F)(F)F)c2)C3)nn1` [Example 32, 6-((7-(4-cyano-3-(trifluoromethyl)phenyl)-5,6,7,8-tetrahydropyrido[3,4-d]pyrimidin-4-yl)amino)-N-(2-hydroxy-2-methylpropyl)pyridazine-3-carboxamide], the “Cell proliferation rate (%)” value in test [1] is −2.2%. Also, the concentration for 50% growth inhibition (GI50) in test [2] (setting [3]) is 3100 nM. The “10 μM AR expression reducing activity” value at androgen receptor is reported as “reduced (When the AR expression reducing activity is 50% or more, it is described as “reduced”)”. Besides, half-maximal inhibition against human androgen receptor (IC50) was put at 60 nM.
For `CS(=O)(=O)N1CCN(CCCOc2ccc(Nc3ncnc4c3CCN(c3ccc(C#N)c(C(F)(F)F)c3)C4)cc2)CC1` [Example 18, 4-(4-((4-(3-(4-(methylsulfonyl)piperazin-1-yl)propoxy)phenyl)amino)-5,6-dihydropyrido[3,4-d]pyrimidin-7(8H)-yl)-2-(trifluoromethyl)benzonitrile], in test [1], the “Cell proliferation rate (%)” value is −4.6%. For the same compound, the GI50 in test [2] (setting [3]) is 1900 nM. Besides, the “10 μM AR expression reducing activity” value on androgen receptor was “reduced (When the AR expression reducing activity is 50% or more, it is described as “reduced”)”. Moreover, the midpoint of inhibition on human androgen receptor, the IC50, lay at 360 nM.
